Measured values from ChEMBL document CHEMBL5316297, “Mechanistic Insight of Synthesized 1,4-Dihydropyridines as an Antidiabetic Sword against Reactive Oxygen Species” (J Med Chem, 2023).

Columns and labels:
[1] = Toxicity in high fat diet-STZ-induced diabetic Swiss albino mouse model assessed as changes in body weight at 0.2 mmol/Kg/day, po administered for 14 days (reference value: 26.6 to 27.8 g); type: organism-based; settings: in vivo, 336 h, time 14 day
Mus musculus [2] = test: Antidiabetic activity against high fat diet-STZ-induced diabetic Swiss albino mouse model assessed as reduction in blood glucose level at 0.2 mmol/Kg/day, po administered for 14 days; type: functional; settings: time 14 day
Mus musculus [3] = test: Antidiabetic activity against high fat diet-STZ-induced diabetic Swiss albino mouse model assessed as reduction in blood glucose level at 0.2 mmol/Kg/day, po administered for 14 days relative to control; type: functional; set-up: scale not given: the % may be the effect or the level left; settings: time 14 day
Mus musculus [4] = test: Antidiabetic activity against high fat diet-STZ-induced diabetic Swiss albino mouse model assessed as reduction in blood glucose level at 0.2 mmol/Kg/day, po administered for 14 days relative to glimepiride; type: functional; set-up: scale not given: the % may be the effect or the level left; settings: time 14 day
[5] = Acute toxicity in Swiss albino mouse assessed as effect on mortality up to 2000 mg/kg, po administered for 14 days; type: organism-based; settings: in vivo, 336 h, time 14 day
[6] = Acute toxicity in Swiss albino mouse assessed as effect on behavioural change up to 2000 mg/kg, po administered for 14 days; type: organism-based; settings: in vivo, 336 h, time 14 day
[7] = Acute toxicity in Swiss albino mouse assessed as effect on motor alterations up to 2000 mg/kg, po administered for 14 days; type: organism-based; settings: in vivo, 336 h, time 14 day
[8] = Acute toxicity in Swiss albino mouse assessed as toxic symptoms up to 2000 mg/kg, po administered for 14 days; type: organism-based; settings: in vivo, 336 h, time 14 day

SMILES	Activity [1] [g]	Activity (Mus musculus [2]) [mg/dL]	Activity (Mus musculus [3]) [%]	Activity (Mus musculus [4]) [%]	Activity [5]	Activity [6]	Activity [7]	Activity [8]
CC1=C(C(=O)OCc2ccccc2)C(c2cccc3c2OCO3)C(C(=O)OCc2ccccc2)=C(C)N1	27.3	169.4	43.66	129	Non-Toxic	Non-Toxic	Non-Toxic	Non-Toxic
CCOC(=O)C1=C(C)NC(C)=C(C(=O)OCC)C1c1ccc2c(c1)Cc1ccccc1-2	29.3	296.94	0.42	1	Non-Toxic	Non-Toxic	Non-Toxic	Non-Toxic
CC1=C(C(=O)OCc2ccccc2)C(c2ccc3c(c2)OCO3)C(C(=O)OCc2ccccc2)=C(C)N1	27	185.3	37.86	113				
COCCOC(=O)C1=C(C)NC(C)=C(C(=O)OC)C1c1cccc2c1OCO2 (stereo not given)	28.3	258.24	13.4	40	Non-Toxic	Non-Toxic	Non-Toxic	Non-Toxic
COC(=O)C1=C(C)NC(C)=C(C(=O)OCc2ccccc2)C1c1ccc2c(c1)OCO2 (stereo not given)	27.4	170.33	42.88	128	Non-Toxic	Non-Toxic	Non-Toxic	Non-Toxic
COCCOC(=O)C1=C(C)NC(C)=C(C(=O)OCCOC)C1c1cccc2c1OCO2	27	208.41	30.11	90	Non-Toxic	Non-Toxic	Non-Toxic	Non-Toxic
COC(=O)C1=C(C)NC(C)=C(C(=O)OC)C1c1cccc2c1OCO2	26.6	114.42	61.63	184	Non-Toxic	Non-Toxic	Non-Toxic	Non-Toxic
COC(=O)C1=C(C)NC(C)=C(C(=O)OC)C1c1ccc2c(c1)OCCO2	27.3	153.21	48.62	145	Non-Toxic	Non-Toxic	Non-Toxic	Non-Toxic
CCOC(=O)C1=C(C)NC(C)=C(C(=O)OCc2ccccc2)C1c1ccc2c(c1)OCO2 (stereo not given)	27.3	169.35	43.21	129	Non-Toxic	Non-Toxic	Non-Toxic	Non-Toxic
COC(=O)C1=C(C)NC(C)=C(C(=O)OC(C)(C)C)C1c1ccc2c(c1)OCO2 (stereo not given)	29.1	297.04	0.39	<1	Non-Toxic	Non-Toxic	Non-Toxic	Non-Toxic
CC1=C(C(=O)OC(C)C)C(c2cccc3c2OCO3)C(C(=O)OC(C)C)=C(C)N1	28.9	268.23	10.05	30	Non-Toxic	Non-Toxic	Non-Toxic	Non-Toxic
CCOC(=O)C1=C(C)NC(C)=C(C(=O)OCCOC)C1c1cccc2c1OCO2 (stereo not given)	27.2	164.33	44.89	134	Non-Toxic	Non-Toxic	Non-Toxic	Non-Toxic
CCOC(=O)C1=C(C)NC(C)=C(C(=O)OCCOC)C1c1ccc2c(c1)OCO2 (stereo not given)	27.2	167.32	43.89	131	Non-Toxic	Non-Toxic	Non-Toxic	Non-Toxic
CCOC(=O)C1=C(C)NC(C)=C(C(=O)OC(C)(C)C)C1c1ccc2c(c1)OCO2 (stereo not given)	27.9	297.9	0.1	<1	Non-Toxic	Non-Toxic	Non-Toxic	Non-Toxic
CC1=C(C(=O)OC(C)(C)C)C(c2cccc3c2OCO3)C(C(=O)OC(C)(C)C)=C(C)N1	29.3	296.14	0.69	<1	Non-Toxic	Non-Toxic	Non-Toxic	Non-Toxic
CC1=C(C(=O)OC(C)C)C(c2ccc3c(c2)OCCO3)C(C(=O)OC(C)C)=C(C)N1	28.8	297.19	0.34	1	Non-Toxic	Non-Toxic	Non-Toxic	Non-Toxic
COC(=O)C1=C(C)NC(C)=C(C(=O)OC(C)(C)C)C1c1cccc2c1OCO2 (stereo not given)	28.7	297.34	0.29	<1	Non-Toxic	Non-Toxic	Non-Toxic	Non-Toxic
CCOC(=O)C1=C(C)NC(C)=C(C(=O)OC)C1c1ccc2c(c1)OCCO2 (stereo not given)	27.5	147.34	50.49	151	Non-Toxic	Non-Toxic	Non-Toxic	Non-Toxic
COC(=O)C1=C(C)NC(C)=C(C(=O)OC)C1c1ccc2c(c1)Cc1ccccc1-2	29.2	296.98	0.41	1	Non-Toxic	Non-Toxic	Non-Toxic	Non-Toxic
CCOC(=O)C1=C(C)NC(C)=C(C(=O)OC)C1c1cccc2c1OCO2 (stereo not given) [OXODIPINE]	27.2	108.4	63.65	190	Non-Toxic	Non-Toxic	Non-Toxic	Non-Toxic
COCCOC(=O)C1=C(C)NC(C)=C(C(=O)OCCOC)C1c1ccc2c(c1)OCO2	27.4	208.41	30.11	90				
COC(=O)C1=C(C)NC(C)=C(C(=O)OC(C)C)C1c1ccc2c(c1)OCO2 (stereo not given)	28.3	244.26	18.09	54	Non-Toxic	Non-Toxic	Non-Toxic	Non-Toxic
CCOC(=O)C1=C(C)NC(C)=C(C(=O)OC)C1c1ccc2c(c1)OCO2 (stereo not given)	27.4	138.36	53.6	160	Non-Toxic	Non-Toxic	Non-Toxic	Non-Toxic
CCOC(=O)C1=C(C)NC(C)=C(C(=O)OC(C)C)C1c1ccc2c(c1)OCO2 (stereo not given)	29.2	297.87	0.11	<1	Non-Toxic	Non-Toxic	Non-Toxic	Non-Toxic
CCOC(=O)C1=C(C)NC(C)=C(C(=O)OC(C)C)C1c1cccc2c1OCO2 (stereo not given)	28.9	297.39	0.27	<1	Non-Toxic	Non-Toxic	Non-Toxic	Non-Toxic
CC1=C(C(=O)OC(C)(C)C)C(c2ccc3c(c2)OCO3)C(C(=O)OC(C)(C)C)=C(C)N1	26.9	296.38	0.61	<1				
CCOC(=O)C1=C(C)NC(C)=C(C(=O)OCC)C1c1ccc2c(c1)OCCO2	26.8	150.35	49.58	148	Non-Toxic	Non-Toxic	Non-Toxic	Non-Toxic
CCOC(=O)C1=C(C)NC(C)=C(C(=O)OCc2ccccc2)C1c1cccc2c1OCO2 (stereo not given)	27.2	166.34	44.22	132	Non-Toxic	Non-Toxic	Non-Toxic	Non-Toxic
COCCOC(=O)C1=C(C)NC(C)=C(C(=O)OC)C1c1ccc2c(c1)OCO2 (stereo not given)	28.6	260.24	12.73	38	Non-Toxic	Non-Toxic	Non-Toxic	Non-Toxic
